In patent publication EP1156045A1, “AMIDE DERIVATIVES AND DRUG COMPOSITIONS” (Nippon Shinyaku Co., Ltd., priority 1999, dated 2000):
Structures can show the parent of a compound that is named as a salt.

Tests used:
[1] = tested on: TGF-β; experiment: Antagonistic action against TGF-β (type I procollagen α2 promoter-luciferase reporter, TGF-β1 stimulation); assay type: cell-based; settings: mink lung epithelial cells (Mv1Lu); drug 1 µg/ml, TGF-β1 10 ng/ml; 24 hours; luciferase activity; read-out: Rate of inhibition (%)
Experimental: The test was carried out according to the method described in J. Clin. Invest., 86, 1489-1495 (1990) and J. Biol. Chem. 265, 13351-13356 (1990). A chimera plasmid was produced in which the promoter region of type I procollagen α2 gene was ligated with a luciferase gene. This plasmid was then transfected into mink lung epithelial cells (Mv1Lu) to produce a cell line stably expressing the luciferase gene under the control of the […]. The drug (1 µg/ml) and TGF-β1 (10 ng/ml) were added to Mv1Lu cells, which were then cultured for 24 hours. Then, the activity of luciferase in the cells was measured by a chemiluminescence method. The rate of inhibition was calculated from the following formula, the rate of inhibition being defined as 100% when the measured luciferase activity was equal to that in the absence of stimulation with TGF-β1: Rate of inhibition = (Lb-Lc)/(Lb-La) × 100 [formula] In this formula, La represents the luciferase activity in the absence of stimulation with TGF-β1, Lb represents the luciferase activity in the presence of stimulation with TGF-β1, and Lc represents the luciferase activity in the presence of TGF-β1 and the test drug.

[2] = Acute toxicity; assay type: in vivo; settings: mice; orally, 300 mg/kg suspension; observed for a week after administration
Experimental: Each of the compounds in Examples 1, 5, 6, 33, 34, 39, and 48 was administered.

[3] = tested on: promoter region of the TGF-β1 gene; experiment: Inhibitory effect on expression of TGF-β mRNA (TGF-β1 promoter-luciferase reporter, TNF-α stimulation); assay type: cell-based; settings: mink lung epithelial cells (Mv1Lu); drug 1 µg/ml, TNF-α 10 ng/ml; 24 hours; luciferase activity; read-out: Rate of inhibition (%)
Experimental: The inhibitory effect of the compounds of the present invention on TGF-β production was evaluated by measuring the inhibition of TGF-β mRNA expression according to the method described in J. Biol. Chem., 264, 402-408 (1989). A chimera plasmid was produced in which the promoter region of the TGF-β1 gene was ligated with a luciferase gene. This plasmid was then transfected into mink lung epithelial cells (Mv1Lu) to produce a cell line stably expressing the luciferase gene under the control of the TGF-β1 promoter. The drug (1 µg/ml) and TNF-α (10 ng/ml) were added to Mv1Lu cells, which were then cultured for 24 hours. Then the activity of luciferase in the cells was measured by a chemiluminescence method. The rate of inhibition was calculated from the following formula, the rate of inhibition being defined as 100% when the measured luciferase activity was equal to that in the absence of stimulation with TNF-α: Rate of inhibition = (Le-Lf)/(Le-Ld) × 100 [formula] In this formula, Ld represents the luciferase activity in the absence of TNF-α, Le represents the luciferase activity in the presence of TNF-α, and Lf represents the luciferase activity in the presence of TNF-α and the test drug.

[4] = tested on: TGF-β1; experiment: Inhibition of TGF-β production (TGF-β1 released into the medium, ELISA); assay type: cell-based; settings: human mesangial cells immortalized with SV40, cultured 4 days, TGF-β1 released during the last 2 days; for inhibition at 1 µg/mL: Mesangial cell, read-out: Rate of inhibition (%)
Experimental: The test was carried out according to the method described in Jpn. J. Pharmacol, 60, 91-96 (1992). That is, human mesangial cells immortalized with SV40 were cultured in 24-well plates, and then the medium was changed to a serum-free medium. The test drugs were added at concentrations of 1 µg/ml or 10 µg/ml, and the cells were cultured for 4 days. The amounts of TGF-β1 (a major type of-TGF-β) released into the medium during the last 2 days were quantified by ELISA kits. The rate of inhibition (%) was calculated from the following formula: Rate of inhibition = (Ta-Tb)/Ta × 100 [formula] In this formula, Ta represents the amount of TGF-β1 released into the medium in the absence of the test drug, and Tb represents the amount of TGF-β1 released into the medium in the presence of the test drug.

Compound | inhibition at 1 µg/mL [1] | deaths [2] | inhibition at 1 µg/mL [3] | inhibition at 1 µg/mL ([4]; concentration 1 µg/ml) | Rate of inhibition (%) ([4]; concentration 1 µg/ml) | Rate of inhibition (%) ([4]; concentration 10 µg/ml)
Cc1ccc2c(c1)c(C(=O)N1CCN(c3ccccn3)CC1)c(-c1ccccc1)n2C.Cl [Example 1, 1-(1,5-Dimethyl-2-phenylindol-3-ylcarbonyl)-4-(2-pyridyl)piperazine hydrochloride] | 31.2% | No deaths were observed |  |  |  | 
Cn1c(-c2ccccc2)c(C(=O)N2CC[N+]([O-])(c3ccccn3)CC2)c2ccccc21 [Example 5, 1-(1-Methyl-2-phenylindol-3-ylcarbonyl)-4-(2-pyridyl)piperazine-4-oxide] | 27.4% | No deaths were observed | 28.2% | 20.9% |  | 
Cl.Cn1c(-c2ccccc2)c(C(=O)N2CCN(c3ccccn3)CC2)c2ccccc21 [Example 6, 1-(1-Methyl-2-phenylindol-3-ylcarbonyl)-4-(2-pyridyl)piperazine hydrochloride] | 44.6% | No deaths were observed | 50.1% | 30.2% |  | 
Cc1ccc2c(c1)c(C(=O)N1CCN(c3cccnc3)CC1)c(-c1ccccc1)n2C.Cl.Cl [Example 33, 1-(1,5-Dimethyl-2-phenylindol-3-ylcarbonyl)-4-(3-pyridyl)piperazine dihydrochloride] | 50.6% | No deaths were observed | 43.2% |  |  | 
Cc1ccc2c(c1)c(C(=O)N1CCN(c3ccncc3)CC1)c(-c1ccccc1)n2C.Cl [Example 34, 1-(1,5-Dimethyl-2-phenylindol-3-ylcarbonyl)-4-(4-pyridyl)piperazine hydrochloride] | 33.8% | No deaths were observed |  |  |  | 
Cc1cc2c(C(=O)N3CCN(c4ccncc4)CC3)c(-c3ccccc3)n(C)c2cc1C.Cl [Example 39, 1-(1,5,6-Trimethyl-2-phenylindol-3-ylcarbonyl)-4-(4-pyridyl)-piperazine hydrochloride] | 52.4% | No deaths were observed | 27.4% |  |  | 
Cl.Cn1c(-c2ccccc2)c(C(=O)N2CCN(c3ccc([N+](=O)[O-])cn3)CC2)c2ccccc21 [Example 48, 1-(1-Methyl-2-phenylindol-3-ylcarbonyl)-4-(5-nitro-2-pyridyl)-piperazine hydrochloride] | 63.7% | No deaths were observed | 74.7% |  |  | 
Cc1ccc2c(c1)c(C(=O)N1CCN(c3ccc([N+](=O)[O-])cn3)CC1)c(-c1ccccc1)n2C [Example 58, 1-(1,5-Dimethyl-2-phenylindol-3-ylcarbonyl)-4-(5-nitro-2-pyridyl)-piperazine hydrochloride] | 34.8% |  | 30.2% | 27.6% |  | 
COc1ccc2c(c1)c(C(=O)NC1CC3CCC(C1)N3C)c(-c1ccccc1)n2C.Cl (stereo not drawn) [Example 61, N-(endo-8-Methyl-8-azabicyclo[3.2.1]octa-3-yl)-5-methoxy-1-methyl-2-phenylindole-3-carboxamide hydrochloride] |  |  |  |  | 69.7% | 
Cc1ccc2c(C(=O)N[C@@H]3C[C@H]4CC[C@@H](C3)N4C)c(-c3ccccc3)n(C)c2c1.Cl [Example 63, N-(endo-8-Methyl-8-azabicyclo[3.2.1]octa-3-yl)-1,6-dimethyl-2-phenylindole-3-carboxamide hydrochloride] |  |  |  |  | 40.7% | 
Cc1ccc2c(c1)c(C(=O)N[C@H]1C[C@H]3CC[C@@H](C1)N3C)c(-c1ccccc1)n2C.Cl [Example 117, N-(endo-8-Methyl-8-azabicyclo[3.2.1]octa-3-yl)-1,5-dimethyl-2-phenylindole-3-carboxamide hydrochloride] |  |  |  |  | 47.4% | 
Cn1c(-c2ccccc2)c(C(=O)N2CCCN(c3ccccn3)CC2)c2ccccc21 [Example 118, 1-(1-Methyl-2-phenylindol-3-ylcarbonyl)-4-(2-pyridyl)-homopiperazine dihydrochloride] | 51.8% |  | 48.8% |  |  | 
Cc1ccc2c(c1)c(C(=O)N1CCCN(c3ccccn3)CC1)c(-c1ccccc1)n2C [Example 119, 1-(1,5-Dimethyl-2-phenylindol-3-ylcarbonyl)-4-(2-pyridyl)-homopiperazine hydrochloride] | 53.8% |  | 39.2% |  |  | 
Cn1c(-c2ccccc2)c(C(=O)N2CCCN(c3cccnc3)CC2)c2ccccc21 [Example 120, 1-(1-Methyl-2-phenylindol-3-ylcarbonyl)-4-(3-pyridyl)homopiperazine hydrochloride] | 44.9% |  | 27.7% |  |  | 
Cc1ccc2c(c1)c(C(=O)N1CCCN(c3cccnc3)CC1)c(-c1ccccc1)n2C [Example 121, 1-(1,5-Dimethyl-2-phenylindol-3-ylcarbonyl)-4-(3-pyridyl)-homopiperazine hydrochloride] | 59% |  | 40.6% |  |  | 
Cc1ccc2c(c1)c(C(=O)N1CCCN(c3ccc([N+](=O)[O-])cn3)CC1)c(-c1ccccc1)n2C [Example 129, 1-(1,5-Dimethyl-2-phenylindol-3-ylcarbonyl)-4-(5-nitro-2 pyridyl)homopiperazine] | 64.3% |  |  |  |  | 
Cc1ccc2c(c1)c(C(=O)N1CCCN(c3ccc(NS(C)(=O)=O)cn3)CC1)c(-c1ccccc1)n2C [Example 174, 1-(1,5-Dimethyl-2-phenylindol-3-ylcarbonyl)-4-(5-methane-sulfonylamino-2-pyridyl)homopiperazine] | 49.8% |  | 24.8% |  |  | 
COC(=O)c1ccc(N2CCCN(C(=O)c3c(-c4ccccc4)n(C)c4ccc(C)cc34)CC2)nc1 [Example 178, 1-(1,5-Dimethyl-2-phenylindol-3-ylcarbonyl)-4-(5-carbomethoxy-2-pyridyl)-homopiperazine] | 102% |  | 43% |  |  | 
CC(=O)Nc1ccc(N2CCCN(C(=O)c3c(-c4ccccc4)n(C)c4ccc(C)cc34)CC2)nc1 [Example 180, 1-(1,5-Dimethyl-2-phenylindol-3-ylcarbonyl)-4-(5-acetylamino-2-pyridyl)homopiperazine] | 48.3% |  | 25.5% |  |  | 
CCN(CC)S(=O)(=O)c1ccc(N2CCCN(C(=O)c3c(-c4ccccc4)n(C)c4ccc(C)cc34)CC2)nc1 [Example 183, 1-(1,5-Dimethyl-2-phenylindol-3-ylcarbonyl)-4-(5-diethylamino-sulfonyl-2-pyridyl)homopiperazine] | 79.3% |  | 46.9% |  |  | 
Cc1ccc(=O)n(-c2ccccc2)c1 [Perfenidone, reference compound] |  |  |  |  |  | 1.7%
